Measured values taken from patent US5460697A, “Method of pulping wood chips with a fungi using sulfite salt-treated wood chips” (priority 1994, dated 1995).
Entries after “also recorded” stand apart in the source; their conditions may differ.

What was measured:
[1] = system: indigenous microorganisms; experiment: Effect of sulfite salts on indigenous microorganisms of unsterilized wood chips (plating); assay type: cell-based, indigenous microorganisms of unsterilized aspen wood chips
Procedure: Aspen wood chips (50 g O.D. basis) were soaked in 500 ml of water containing either 0 mg, 781 mg or 1562 mg sodium bisulfite for about 1 hour at room temperature. After soaking, water was drained from the chips.
During the 1 hour soaking the chips soaked up about 31 ml of water. Therefore, the final moisture content of wood was about 61% (wet weight basis) and the final concentration of each chemical on water basis was about 0 μg/ml, 600 μg/ml and 1200 μg/ml.
Three chips were pulled randomly from each flask and plated on potato dextrose agar and tryptic soy agar plates. These plates were incubated at 27° C. for 24 or 27 h and the contaminants were visually observed.
A panel of other sulfur-containing chemicals were analyzed for their ability to inhibit the growth of indigenous microorganisms on unsterilized wood chips in the manner described above. Table 2 describes the various concentrations of these chemicals and the percent inhibition relative to control plates observed.

H. setulosa FP-106976-sp = experiment: Effect of sodium bisulfite on radial growth of white-rot fungi; assay type: cell-based; conditions: 500 μg/ml
Procedure: (§1) 2% agar was added to the medium. The medium was autoclaved for 15 min. and the medium was poured into petri dishes. These plates were then inoculated with a plug cut into 8-mm diameter plugs from a petri dish containing a 5-day-old culture of P. chrysosporium or a petri dish containing a 10-day-old culture of another white-rot fungi. P. chrysosporium-inoculated plates were incubated at 39° C. Plates inoculated with other fungi were incubated at 27° C.

P. brevispora 7030-sp = experiment: as above; assay type: cell-based; conditions: 500 μg/ml
Procedure: as §1

[2] = system: P. subserialis RLG-6074-sp; experiment: as above; assay type: cell-based; conditions: 500 μg/ml
Procedure: as §1

P. tremellosa PRL-2845 = experiment: as above; assay type: cell-based; conditions: 500 μg/ml
Procedure: as §1

C. subvennispora CZ-3 = experiment: as above; assay type: cell-based, C. subvermispora; conditions: 500 μg/ml
Procedure: as §1

[3] = system: C. subvennispora FP-104027-T; experiment: as above; assay type: cell-based, C. subvermispora; conditions: 500 μg/ml
Procedure: as §1

[4] = system: C. subvennispora FP-105752-sp; experiment: as above; assay type: cell-based, C. subvermispora; conditions: 500 μg/ml
Procedure: as §1

[5] = system: C. subvennispora FP-90031-sp; experiment: as above; assay type: cell-based, C. subvermispora; conditions: 500 μg/ml
Procedure: as §1

[6] = system: C. subvennispora L-14807-sp; experiment: as above; assay type: cell-based, C. subvermispora; conditions: 500 μg/ml
Procedure: as §1

[7] = system: C. subvennispora L-15225-sp; experiment: as above; assay type: cell-based, C. subvermispora; conditions: 500 μg/ml
Procedure: as §1

[8] = system: C. subvennispora L-6133-sp; experiment: as above; assay type: cell-based, C. subvermispora; conditions: 500 μg/ml
Procedure: as §1

white-rot fungi = experiment: Effect of sodium bisulfite on radial growth of white-rot fungi (summary); assay type: cell-based, white-rot fungi listed in Table 7; conditions: 500 μg/ml, 72 and 96 h
Procedure: as §1

**Q.** Which results are given for `O=S([O-])O.[Na+]` [Sodium Bisulfite]?
**A.** Inhibition Relative to control ([1]; 600 μg/ml): 95%; Inhibition Relative to control ([1]; 1200 μg/ml): 100%; inhibition of contaminants (in words) ([1]; 1200 μg/ml, potato dextrose and tryptic soy agar plates): completely inhibited all contaminants; also recorded: no colonies on the plate; first test: whether the salt inhibits growth of indigenous microorganisms ([1]; pass / not pass): passed the first test; inhibition of growth of indigenous microorganisms (in words) ([1]; unsterilized wood chips, overall statement): successfully inhibited the growth of microorganisms; also recorded: inhibited all wood contaminants; also recorded: inhibited the growth of indigenous microorganisms; Radial growth 72h ± SD (H. setulosa FP-106976-sp; 72 h): 1.97 ± .06 cm; Radial growth 96h ± SD (H. setulosa FP-106976-sp; 96 h): 3.77 ± .25 cm; Radial growth 72h ± SD (P. brevispora 7030-sp; 72 h): 2.23 ± .06 cm; Radial growth 96h ± SD (P. brevispora 7030-sp; 96 h): 4.07 ± .38 cm; Radial growth 72h ± SD ([2]; 72 h): 3.93 ± .42 cm; Radial growth 96h ± SD ([2]; 96 h): 7.07 ± .29 cm; Radial growth 72h ± SD (P. tremellosa PRL-2845; 72 h): 1.73 ± .06 cm; Radial growth 96h ± SD (P. tremellosa PRL-2845; 96 h): 2.97 ± .12 cm; Radial growth 72h ± SD (C. subvennispora CZ-3; 72 h): 2.37 ± .12 cm; Radial growth 96h ± SD (C. subvennispora CZ-3; 96 h): 4.37 ± .15 cm; Radial growth 72h ± SD ([3]; 72 h): 3.63 ± .23 cm; Radial growth 96h ± SD ([3]; 96 h): 6.07 ± .46 cm; Radial growth 72h ± SD ([4]; 72 h): 2.13 ± .06 cm; Radial growth 96h ± SD ([4]; 96 h): 4.00 ± 00 cm; Radial growth 72h ± SD ([5]; 72 h): 3.20 ± .20 cm; Radial growth 96h ± SD ([5]; 96 h): 5.77 ± .31 cm; Radial growth 72h ± SD ([6]; 72 h): 2.60 ± .30 cm; Radial growth 96h ± SD ([6]; 96 h): 5.07 ± .31 cm; Radial growth 72h ± SD ([7]; 72 h): 1.63 ± .40 cm; Radial growth 96h ± SD ([7]; 96 h): 4.20 ± .72 cm; Radial growth 72h ± SD ([8]; 72 h): 2.37 ± .25 cm; Radial growth 96h ± SD ([8]; 96 h): 4.80 ± .20 cm; radial growth (in words) (white-rot fungi): increased the radial growth
